Measured values from patent US12077503B2, “Substituted cyclic amides and their use as herbicides” (FMC CORPORATION, priority 2015, dated 2024).

Experiments:
Type in all cases: in vivo
[1] = test system: giant foxtail (Setaria faberii); assay: Test A postemergence; conditions: for Plant response rating, Foxtail, Giant: Postemergence, 0 to 100 scale where 0 is no effect and 100 is complete control
Method in brief: (§1)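 In a loam soil and sand blend, planted seeds got a preemergence directed soil spray, and young plants at the one- to two-leaf stage, 2–10 cm high, got a postemergence application; ~10 d greenhouse hold; injury rated visually, 0 = none, 100 = complete control.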

Kochia (Kochia scoparia) [2] = assay: Test A postemergence
Method in brief: as §1

[3] = test system: ragweed (common ragweed, Ambrosia elatior); assay: Test A postemergence; conditions: for Plant response rating, Ragweed: 500 g ai/ha
Method in brief: as §1

[4] = test system: Galium (catchweed bedstraw, Galium aparine); assay: Test A postemergence
Method in brief: as §1

[5] = test system: blackgrass (Alopecurus myosuroides); assay: Test A postemergence; conditions: for Plant response rating, Blackgrass: 500 g ai/ha
Method in brief: as §1

[6] = test system: wheat (Triticum aestivum); assay: Test A postemergence
Method in brief: as §1

[7] = test system: barnyardgrass (Echinochloa crus-galli); assay: Test A postemergence; conditions: for Plant response rating, Barnyardgrass: Postemergence, 0 to 100 scale where 0 is no effect and 100 is complete control
Method in brief: as §1

[8] = test system: ryegrass, Italian (Italian ryegrass, Lolium multiflorum); assay: Test A postemergence
Method in brief: as §1

[9] = test system: pigweed (Amaranthus retroflexus); assay: Test A postemergence; conditions: for Plant response rating, Pigweed: 500 g ai/ha
Method in brief: as §1

corn (Zea mays) = assay: Test A postemergence
Method in brief: as §1

[10] = test system: giant foxtail (Setaria faberii); assay: Test A preemergence
Method in brief: as §1

Kochia (Kochia scoparia) [11] = assay: Test A preemergence
Method in brief: as §1

[12] = test system: ragweed (common ragweed, Ambrosia elatior); assay: Test A preemergence
Method in brief: as §1

[13] = test system: barnyardgrass (Echinochloa crus-galli); assay: Test A preemergence
Method in brief: as §1

[14] = test system: ryegrass, Italian (Italian ryegrass, Lolium multiflorum); assay: Test A preemergence
Method in brief: as §1

[15] = test system: pigweed (Amaranthus retroflexus); assay: Test A preemergence
[16] = test system: ducksalad (Heteranthera limosa); assay: Test B flooded paddy test; conditions: 250 g ai/ha, Flood, 0 to 100 scale where 0 is no effect and 100 is complete control
Method in brief: (§2)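 Plants at 2-leaf stage flooded to 3 cm above soil, with compounds applied directly to paddy water and that depth maintained. Plants kept in greenhouse 13–15 d. Visual rating versus controls on a 0 (no effect) to 100 (complete control) scale.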

[17] = test system: sedge, umbrella (small-flower umbrella sedge, Cyperus difformis); assay: Test B flooded paddy test; conditions: 250 g ai/ha, Flood, 0 to 100 scale where 0 is no effect and 100 is complete control
Method in brief: as §2

rice (Oryra sativa) = assay: Test B flooded paddy test; conditions: 250 g ai/ha, Flood, 0 to 100 scale where 0 is no effect and 100 is complete control
Method in brief: as §2

[18] = test system: barnyardgrass (Echinochloa crus-galli); assay: Test B flooded paddy test; conditions: 250 g ai/ha, Flood, 0 to 100 scale where 0 is no effect and 100 is complete control
Method in brief: as §2

[19] = 125 g ai/ha, visual injury after approximately 10 d
[20] = 125 g ai/ha, Postemergence, visual injury after approximately 10 d, 0 to 100 scale where 0 is no effect and 100 is complete control
[21] = 500 g ai/ha, postemergence, visual injury, 0 to 100 scale (0 no effect, 100 complete control), approx. 10 d
[22] = postemergence, visual injury, 0 to 100 scale (0 no effect, 100 complete control), approx. 10 d
[23] = 500 g ai/ha, preemergence, visual injury rating about 10 d after treatment, 0 to 100 scale (0 no effect, 100 complete control)
[24] = 125 g ai/ha, postemergence, visual injury rating on 0 to 100 scale (0 no effect, 100 complete control), approx. 10 d
[25] = Postemergence, 500 g ai/ha, 0 to 100 scale where 0 is no effect and 100 is complete control
[26] = Postemergence, 0 to 100 scale where 0 is no effect and 100 is complete control
[27] = 125 g ai/ha, Preemergence, visual injury after approximately 10 d, 0 to 100 scale where 0 is no effect and 100 is complete control
[28] = Preemergence, 500 g ai/ha, visual injury approx. 10 d

Cc1ccc([C@H]2CN(C)C(=O)[C@@H]2C(=O)Nc2ccccc2[S+](C)[O-])cc1Cl (single isomer, unassigned) [Compound 1016]
Plant response rating, Foxtail, Giant [1, 19]: 30
pest or weed control at 500 g/ha ([1]; Setaria faberi, post-emergence, 240 h, 500 g ai/ha, postemergence, visual injury, 0 to 100 scale (0 no effect, 100 complete control), approx. 10 d, read-out: Plant response rating, Foxtail, Giant): 80%
Plant response rating, Kochia (Kochia (Kochia scoparia) [2]; [20]): 0
Plant response rating, Kochia (Kochia (Kochia scoparia) [2]; [21]): 0
Plant response rating, Ragweed [3, 22]: 0
pest or weed control at 125 g/ha ([3]; Ambrosia artemisiifolia, post-emergence, 240 h, 125 g ai/ha, Postemergence, visual injury after approximately 10 d, 0 to 100 scale where 0 is no effect and 100 is complete control, read-out: Plant response rating, Ragweed): 0%
Plant response rating, Galium [4, 20]: 0
Plant response rating, Galium [4, 21]: 0
Plant response rating, Blackgrass [5, 22]: 0
pest or weed control at 125 g/ha ([5]; Alopecurus myosuroides, post-emergence, 240 h, 125 g ai/ha, Postemergence, visual injury after approximately 10 d, 0 to 100 scale where 0 is no effect and 100 is complete control, read-out: Plant response rating, Blackgrass): 0%
Plant response rating, Wheat [6, 20]: 0
Plant response rating, Wheat [6, 21]: 0
Plant response rating, Barnyardgrass [7, 19]: 50
pest or weed control at 500 g/ha ([7]; Echinochloa crus-galli, post-emergence, 240 h, 500 g ai/ha, postemergence, visual injury, 0 to 100 scale (0 no effect, 100 complete control), approx. 10 d, read-out: Plant response rating, Barnyardgrass): 90%
Plant response rating, Ryegrass, Italian [8, 20]: 0
Plant response rating, Ryegrass, Italian [8, 21]: 0
Plant response rating, Pigweed [9, 22]: 0
pest or weed control at 125 g/ha ([9]; Amaranthus retroflexus, post-emergence, 240 h, 125 g ai/ha, Postemergence, visual injury after approximately 10 d, 0 to 100 scale where 0 is no effect and 100 is complete control, read-out: Plant response rating, Pigweed): 0%
Plant response rating, Corn (corn (Zea mays); [20]): 0
Plant response rating, Corn (corn (Zea mays); [21]): 0
pest or weed control at 125 g/ha ([10]; Setaria faberi, pre-emergence, 240 h, 125 g ai/ha, Preemergence, visual injury rating after approximately 10 d, read-out: Foxtail, Giant plant response rating (0 to 100 scale, 0 is no effect, 100 is complete control)): 90%
pest or weed control at 500 g/ha ([10]; Setaria faberi, pre-emergence, 240 h, 500 g ai/ha, preemergence, visual injury rating about 10 d after treatment, 0 to 100 scale (0 no effect, 100 complete control), read-out: Foxtail, Giant plant response rating): 90%
Kochia plant response rating (Kochia (Kochia scoparia) [11]; [23]): 0
pest or weed control at 125 g/ha (Kochia (Kochia scoparia) [11]; Bassia scoparia, pre-emergence, 240 h, 125 g ai/ha, Preemergence, visual injury rating after approximately 10 d, read-out: Kochia plant response rating (0 to 100 scale, 0 is no effect, 100 is complete control)): 0%
Ragweed plant response rating [12, 23]: 0
pest or weed control at 125 g/ha ([12]; Ambrosia artemisiifolia, pre-emergence, 240 h, 125 g ai/ha, Preemergence, visual injury rating after approximately 10 d, read-out: Ragweed plant response rating (0 to 100 scale, 0 is no effect, 100 is complete control)): 0%
pest or weed control at 125 g/ha ([13]; Echinochloa crus-galli, pre-emergence, 240 h, 125 g ai/ha, Preemergence, visual injury rating after approximately 10 d, read-out: Barnyardgrass plant response rating (0 to 100 scale, 0 is no effect, 100 is complete control)): 90%
pest or weed control at 500 g/ha ([13]; Echinochloa crus-galli, pre-emergence, 240 h, 500 g ai/ha, preemergence, visual injury rating about 10 d after treatment, 0 to 100 scale (0 no effect, 100 complete control), read-out: Barnyardgrass plant response rating): 90%
Ryegrass, Italian plant response rating [14, 23]: 0
pest or weed control at 125 g/ha ([14]; Lolium multiflorum, pre-emergence, 240 h, 125 g ai/ha, Preemergence, visual injury rating after approximately 10 d, read-out: Ryegrass, Italian plant response rating (0 to 100 scale, 0 is no effect, 100 is complete control)): 0%
Pigweed plant response rating (0 to 100 scale, 0 is no effect, 100 is complete control) ([15]; 125 g ai/ha, Preemergence, visual injury rating after approximately 10 d): 0
Pigweed plant response rating [15, 23]: 0
Ducksalad plant response rating [16]: 0
pest or weed control at 250 g/ha ([17]; Cyperus difformis, read-out: Sedge, Umbrella plant response rating): 0%
pest or weed control at 250 g/ha (rice (Oryra sativa); Oryza sativa, read-out: Rice plant response rating): 30%
Barnyardgrass plant response rating [18]: 0

O=C1NCC(c2cccc(F)c2F)C1C(=O)Nc1ccccc1F (stereo not drawn) [Compound 494]
Foxtail, Giant plant response rating [1, 24]: 20
Plant response rating, Foxtail, Giant ([1]; 500 g ai/ha): 60
Kochia plant response rating (Kochia (Kochia scoparia) [2]; [24]): 0
Plant response rating, Kochia (Kochia (Kochia scoparia) [2]; [25]): 0
Ragweed plant response rating [3, 24]: 0
Plant response rating, Ragweed [3, 26]: 0
Galium plant response rating [4, 24]: 0
Plant response rating, Galium [4, 25]: 0
Blackgrass plant response rating [5, 24]: 0
Plant response rating, Blackgrass [5, 26]: 0
Wheat plant response rating [6, 24]: 0
Plant response rating, Wheat [6, 25]: 0
Barnyardgrass plant response rating [7, 24]: 30
Plant response rating, Barnyardgrass ([7]; 500 g ai/ha): 80
Ryegrass, Italian plant response rating [8, 24]: 0
Plant response rating, Ryegrass, Italian [8, 25]: 0
Pigweed plant response rating [9, 24]: 0
Plant response rating, Pigweed [9, 26]: 0
Corn plant response rating (corn (Zea mays); [24]): 0
Plant response rating, Corn (corn (Zea mays); [25]): 0
Plant response rating, Foxtail, Giant [10, 27]: 80
Foxtail, Giant plant response rating (0 to 100 scale, 0 is no effect, 100 is complete control) [10, 28]: 90
Plant response rating, Kochia (Kochia (Kochia scoparia) [11]; [27]): 0
Kochia plant response rating (0 to 100 scale, 0 is no effect, 100 is complete control) (Kochia (Kochia scoparia) [11]; [28]): 0
Plant response rating, Ragweed [12, 27]: 0
Ragweed plant response rating (0 to 100 scale, 0 is no effect, 100 is complete control) [12, 28]: 0
Plant response rating, Barnyardgrass [13, 27]: 70
Barnyardgrass plant response rating (0 to 100 scale, 0 is no effect, 100 is complete control) [13, 28]: 90
Plant response rating, Ryegrass, Italian [14, 27]: 0
Ryegrass, Italian plant response rating (0 to 100 scale, 0 is no effect, 100 is complete control) [14, 28]: 0
Plant response rating, Pigweed [15, 27]: 0
Pigweed plant response rating (0 to 100 scale, 0 is no effect, 100 is complete control) [15, 28]: 0
Plant response rating, Ducksalad ([16]; 13 to 15 d): 30
Plant response rating, Sedge, Umbrella ([17]; 13 to 15 d): 0
Plant response rating, Rice (rice (Oryra sativa); 13 to 15 d): 0
Plant response rating, Barnyardgrass ([18]; 13 to 15 d): 20
